Data published in patent US12459951B2, “Compounds that interact with RAS superfamily proteins for treatment of cancers, inflammatory diseases, rasopathies, and fibrotic disease” (SHY Therapeutics, LLC, priority 2022, dated 2025).

Experiments:
[1] = test system: KRas wild type; assay: Ras GTP Binding Domain Inhibition Assay (Ras Superfamily Assay); conditions: at 20 μM; for KRas wild type + SOS: % inh.: with SOS; for KRas wild type: % inh.: without SOS
Method in brief: (§1)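 Ni-plate capture of His-tagged protein (10-30 μg/mL, o/n 4° C); cpd 20 μM or dilution series, 1% DMSO, 3 h RT ± Sos 556-1049 last h; 100 nM Cy-labelled GTP 45 min RT; 3× wash; fluorescence read.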

[2] = target: T1, Rac-1 (Homo sapiens, UniProt P63000); assay: as above; conditions: read-out: Rac-1: % inh.
T1 construct: made in house
Method in brief: as §1

[3] = test system: KRas G12D mutant; assay: as above; conditions: at 20 μM; for KRas G12D mutant + SOS: % inh.: with SOS; for KRas G12D mutant: % inh.: without SOS
Method in brief: as §1

[4] = test system: TNF-alpha; assay: TNF-alpha Quantification Assay (ELISA), LPS-stimulated RAW 264.7; format: cell-based; conditions: Mus musculus, RAW264.7; at 10 μM; read-out: TNFα: % inh.
[5] = test system: Smad2/Smad3 phosphorylation; assay: Phospho-Smad2/3 Inhibition Assay (western blot), Panc-1; format: cell-based, human; conditions: at 10 μM, Panc-1 pancreatic cancer cell line; starred symbols = activation
Method in brief: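 Panc-1 cells (KRas G12D), starved overnight in 0.5% FBS, treated 3 h at 37° C with compound at 10 μM final (0.3% DMSO) or serial dilutions for IC50, then stimulated with 10 ng/ml TGF-b1 for 1 h. Phospho-Smad2 (Ser465/467) and phospho-Smad3 (Ser423/425) detected by western blot.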

| KRas wild type + SOS: % inh. [1] | KRas wild type: % inh. [1] | inhibition at 20 µM [2] [%] | KRas G12D mutant + SOS: % inh. [3] | KRas G12D mutant: % inh. [3] | Compound | inhibition at 10 µM [4] [%] | % inh of Smad2/3 phosphorylation in Panc-1 [5] |
| --- | --- | --- | --- | --- | --- | --- | --- |
| 0 (0 = 0% inhibition) | A (A = 1-25% inhibition) | 1 to 25 | A (A = 1-25% inhibition) | B (B = 26-49% inhibition) | Cc1c(-c2ccn(C)n2)cn2nc(-c3nccn3C)nc(Nc3ccc(-n4ccnc4)cn3)c12 [Compound 242, N-(5-(1H-Imidazol-1-yl)pyridin-2-yl)-5-methyl-2-(1-methyl-1H-imidazol-2-yl)-6-(1-methyl-1H-pyrazol-3-yl)pyrrolo[2,1-f][1,2,4]triazin-4-amine] | 0 | A (A = 1-25% inhibition) |
| D (D = 76-100% inhibition) | D (D = 76-100% inhibition) | 76 to 100 | D (D = 76-100% inhibition) | D (D = 76-100% inhibition) | Cc1c(-c2ccn(C)n2)cn2nc(-c3nccn3C)nc(Nc3ccc(-n4ccnc4C)cn3)c12 [Compound 243, 5-Methyl-N-(5-(2-methyl-1H-imidazol-1-yl)pyridin-2-yl)-2-(1-methyl-1H-imidazol-2-yl)-6-(1-methyl-1H-pyrazol-3-yl)pyrrolo[2,1-f][1,2,4]triazin-4-amine] | 0 | A* (A* = 1-25% activation) |

The next lines start with the compound.

| Compound | KRas wild type + SOS: % inh. [1] | KRas wild type: % inh. [1] | inhibition at 20 µM [2] [%] | KRas G12D mutant + SOS: % inh. [3] | KRas G12D mutant: % inh. [3] | inhibition at 10 µM [4] [%] | % inh of Smad2/3 phosphorylation in Panc-1 [5] |
| --- | --- | --- | --- | --- | --- | --- | --- |
| COc1cc(Nc2nc(-c3nccn3C)nn3cc(-c4ccn(C)n4)c(C)c23)ncc1C1CC1 [Compound 238, N-(5-Cyclopropyl-4-methoxypyridin-2-yl)-5-methyl-2-(1-methyl-1H-imidazol-2-yl)-6-(1-methyl-1H-pyrazol-3-yl)pyrrolo[2,1-f][1,2,4]triazin-4-amine] | D (D = 76-100% inhibition) | D (D = 76-100% inhibition) | 76 to 100 | D (D = 76-100% inhibition) | D (D = 76-100% inhibition) | 50 to 74 | 0 (0 = 0% inhibition) |
| Cc1cnc2c(c1)CCN2c1nc(-c2nccn2C)nn2cc(-c3ccn(C)n3)c(C)c12 [Compound 239, 5-Methyl-2-(1-methyl-1H-imidazol-2-yl)-6-(1-methyl-1H-pyrazol-3-yl)-4-(5-methyl-2,3-dihydro-1H-pyrrolo[2,3-b]pyridin-1-yl)pyrrolo[2,1-f][1,2,4]triazine] | D (D = 76-100% inhibition) | D (D = 76-100% inhibition) | 76 to 100 | D (D = 76-100% inhibition) | D (D = 76-100% inhibition) | 1 to 24 | 0 (0 = 0% inhibition) |
| Cc1c(-c2ccn(C)n2)cn2nc(-c3nccn3C)nc(Nc3cc(C(C)(C)O)ccn3)c12 [Compound 240, 2-(2-((5-Methyl-2-(1-methyl-1H-imidazol-2-yl)-6-(1-methyl-1H-pyrazol-3-yl)pyrrolo[2,1-f][1,2,4]triazin-4-yl)amino)pyridin-4-yl)propan-2-ol] | D (D = 76-100% inhibition) | D (D = 76-100% inhibition) | 76 to 100 | D (D = 76-100% inhibition) | D (D = 76-100% inhibition) | 0 | 0 (0 = 0% inhibition) |
| Cc1c(-c2ccn(C)n2)cn2nc(-c3nccn3C)nc(Nc3ccc(C(C)(C)O)cn3)c12 [Compound 241, 2-(6-((5-Methyl-2-(1-methyl-1H-imidazol-2-yl)-6-(1-methyl-1H-pyrazol-3-yl)pyrrolo[2,1-f][1,2,4]triazin-4-yl)amino)pyridin-3-yl)propan-2-ol] | D (D = 76-100% inhibition) | D (D = 76-100% inhibition) | 76 to 100 | D (D = 76-100% inhibition) | D (D = 76-100% inhibition) | 1 to 24 | C* (C* = 46-75% activation) |
